Read-outs that look alike come from different tables or passages of the source.
Columns and labels:
[1] = system: pentylenetetrazole-induced clonic seizures; experiment: animal or person; assay type: in vivo, Kunming mice; conditions: for minimal effective dose: Mus musculus, sc, read-out: scPTZ, dose at which at least one of three animals was protected; for minimal effective dose / scPTZ, dose at which at least one of three animals was protected: doses 30, 100, 300 mg/kg; for ED50 (scPTZ) / PI (TD50/ED50) scPTZ: 0.5 h; for ED50 (scPTZ): value (95% CI); for PI (TD50/ED50) scPTZ: Kunming, mouse, in vivo
Protocol: (§1) Pharmacological tests were performed using two experimental animal models, MES and scPTZ, which were divided into three dosage groups of 30, 100, and 300 mg/kg, and the anticonvulsant activity of the target compounds 6a–m and 9a–g, after 0.5 and 4 h of administration, respectively, were tested. Carbamazepine, which is effective in the MES model, was chosen as a positive control, and ethosuximide, which is effective in the scPTZ model, was chosen as a positive control. […]
The test compound wa s
Absence of clonic spasms indicated a […]

MES-induced seizures = experiment: animal or person; assay type: in vivo, Kunming mice; conditions: for minimal effective dose: Mus musculus, ip, doses 30, 100, 300 mg/kg, read-out: MES, dose at which at least one of three animals was protected; for ED50 (MES) / PI (TD50/ED50) MES: 0.5 h; for ED50 (MES): value (95% CI); for PI (TD50/ED50) MES: Kunming, mouse, in vivo
Protocol: as §1
Protection against the spread of
extension component of the seizure. […]

mice [2] = experiment: Rotarod (ROT) neurotoxicity test; conditions: for NT (neurotoxicity, ROT), dose at which at least one of three animals showed neurotoxicity: doses 100, 300 mg/kg; for TD50 (ROT): 0.5 h, value (95% CI)
Protocol: The neurotoxicity of the target compounds was tested using the ROT experimental model, which was divided into two dose groups, 100 and 300 mg/kg, and tested after 0.5 and 4 h of administration, respectively.
The neurotoxicity of the target compounds was determined using the ROT experimental model.
The neurotoxicity of the compounds wa s measured in mice using the rotarod test. Mice
we r e trained to stay on an accelerating rotarod (diameter, 3.2 cm) rotating at 10 rpm. Trained
animals we r e injected with the test compounds (i.p.) and neurotoxicity wa s measured as the
inability of the animal to maintain equilibrium on the rod for at least 1 min in each of the

mice [3] = experiment: Elevated plus maze (EPM) test; assay type: in vivo; conditions: 1 mg/kg, n = 6
Excerpt: The EPM experiment is a method for evaluating whether experimental animals have an anxiety response. The principle is that, in the face of new things, mice will generate curiosity to explore (open arm), while they have a nature of darkness (closed arm), the conflict behavior between the two occurs between exploration and avoidance, resulting in anxiety. Anxious behavior can be evaluated by comparing the retention time of mice in the open and closed arms.
Flumazenil is a selective BZ antagonist with a chemical structure similar to that of BZs, which acts on central benzodiazepine (BZ) receptors and thus blocks the receptors without producing BZ-like effects.
The apparatus consisted of a black acrylic maze with two opposite open arms (50×10 cm) and two opposite closed arms (50×10×40 cm) disposed like a plus sign with a central square of 10 cm2. Entire maze wa s elevated 50 cm above the floor. The test consisted in placing the rat in the central square of the maze facing one closed arm and allowing it to explore during 5 min. This procedure wa s performed in a quiet and dimly illuminated room. The scores analysed we r e the time spent in open and closed arms, and the number of entries to both […]
widely used as an anxiety index (time spent in open arms relative to the time spent in open […]
and closed arms). […]

| Structure (SMILES) | minimal effective dose ([1]; 0.5 h after administration) | minimal effective dose ([1]; 4 h after administration) | minimal effective dose (MES-induced seizures; 0.5 h after administration) | minimal effective dose (MES-induced seizures; 4 h after administration) | NT (neurotoxicity, ROT), dose at which at least one of three animals showed neurotoxicity (mice [2]; 0.5 h after administration) | NT (neurotoxicity, ROT), dose at which at least one of three animals showed neurotoxicity (mice [2]; 4 h after administration) | scPTZ, dose at which at least one of three animals was protected ([1]; 4 h after administration) | ED50 (scPTZ) [1] | PI (TD50/ED50) scPTZ [1] | ED50 (MES) (MES-induced seizures) | PI (TD50/ED50) MES (MES-induced seizures) | TD50 (ROT) (mice [2]) | EPM % of time in open arms vs control (mice [3]) |
| --- | --- | --- | --- | --- | --- | --- | --- | --- | --- | --- | --- | --- | --- |
| O=C(Nc1ccc(-n2cncn2)cc1)c1ccccc1 [Compound 6a, N-(4-(1H-1,2,4-triazol-1-yl)phenyl)benzamide] | 100 mg/kg | 100 mg/kg | 300 mg/kg | 300 mg/kg | >300 mg/kg | >300 mg/kg | – | – | – | – | – | – | – |
| O=C(Nc1ccc(-n2cncn2)cc1)c1ccccc1Cl [Compound 6b, N-(4-(1H-1,2,4-triazol-1-yl)phenyl)-2-chlorobenzamide] | 100 mg/kg | 300 mg/kg | 300 mg/kg | 100 mg/kg | >300 mg/kg | >300 mg/kg | – | – | – | – | – | – | – |
| O=C(Nc1ccc(-n2cncn2)cc1)c1cccc(Cl)c1 [Compound 6c, N-(4-(1H-1,2,4-triazol-1-yl)phenyl)-3-chlorobenzamide] | 100 mg/kg | 100 mg/kg | 100 mg/kg | 300 mg/kg | >300 mg/kg | >300 mg/kg | – | – | – | – | – | – | – |
| O=C(Nc1ccc(-n2cncn2)cc1)c1ccc(Cl)cc1 [Compound 6d, N-(4-(1H-1,2,4-triazol-1-yl)phenyl)-4-chlorobenzamide] | 300 mg/kg | > 300 mg/kg | 300 mg/kg | 300 mg/kg | >300 mg/kg | >300 mg/kg | inactive | – | – | – | – | – | – |
| O=C(Nc1ccc(-n2cncn2)cc1)c1ccccc1F [Compound 6e, N-(4-(1H-1,2,4-triazol-1-yl)phenyl)-2-fluorobenzamide] | 100 mg/kg | 100 mg/kg | 100 mg/kg | 100 mg/kg | >300 mg/kg | >300 mg/kg | – | – | – | – | – | – | – |
| O=C(Nc1ccc(-n2cncn2)cc1)c1ccc(F)cc1 [Compound 6g, N-(4-(1H-1,2,4-triazol-1-yl)phenyl)-4-fluorobenzamide] | 30 mg/kg | 100 mg/kg | 30 mg/kg | 30 mg/kg | >300 mg/kg | >300 mg/kg | – | 31.5 mg/kg | 13.6 | 13.7 mg/kg | 31.3 | 429.1 (466.4–394.7) mg | – |
| O=C(Nc1ccc(-n2cncn2)cc1)c1ccccc1C(F)(F)F [Compound 6h, N-(4-(1H-1,2,4-triazol-1-yl)phenyl)-2-(trifluoromethyl)benzamide] | 300 mg/kg | > 300 mg/kg | 100 mg/kg | 300 mg/kg | >300 mg/kg | >300 mg/kg | inactive | – | – | – | – | – | – |
| O=C(Nc1ccc(-n2cncn2)cc1)c1cccc(C(F)(F)F)c1 [Compound 6i, N-(4-(1H-1,2,4-triazol-1-yl)phenyl)-3-(trifluoromethyl)benzamide] | 30 mg/kg | 100 mg/kg | 30 mg/kg | 30 mg/kg | >300 mg/kg | >300 mg/kg | – | 22.8 mg/kg | 16.7 | 21.9 mg/kg | 17.4 | 381.4 (414.6–350.8) mg | – |
| O=C(Nc1ccc(-n2cncn2)cc1)c1ccc(C(F)(F)F)cc1 [Compound 6j, N-(4-(1H-1,2,4-triazol-1-yl)phenyl)-4-(trifluoromethyl)benzamide] | 100 mg/kg | 100 mg/kg | 100 mg/kg | 300 mg/kg | >300 mg/kg | >300 mg/kg | – | – | – | – | – | – | – |
| Cc1ccccc1C(=O)Nc1ccc(-n2cncn2)cc1 [Compound 6k, N-(4-(1H-1,2,4-triazol-1-yl)phenyl)-2-methylbenzamide] | 100 mg/kg | 300 mg/kg | 30 mg/kg | 100 mg/kg | >300 mg/kg | >300 mg/kg | – | – | – | – | – | – | – |
| Cc1ccc(C(=O)Nc2ccc(-n3cncn3)cc2)cc1 [Compound 6m, N-(4-(1H-1,2,4-triazol-1-yl)phenyl)-4-methylbenzamide] | 100 mg/kg | 300 mg/kg | 300 mg/kg | 300 mg/kg | >300 mg/kg | >300 mg/kg | – | – | – | – | – | – | – |
| CCC(=O)Nc1ccc(-n2cncn2)cc1 [Compound 9a, N-(4-(1H-1,2,4-triazol-1-yl)phenyl)propionamide] | 100 mg/kg | 100 mg/kg | 100 mg/kg | 300 mg/kg | >300 mg/kg | >300 mg/kg | – | – | – | – | – | – | – |
| CCCC(=O)Nc1ccc(-n2cncn2)cc1 [Compound 9b, N-(4-(1H-1,2,4-triazol-1-yl)phenyl)butyramide] | 30 mg/kg | 100 mg/kg | 30 mg/kg | 100 mg/kg | 300 mg/kg | >300 mg/kg | – | – | – | – | – | – | – |
| CCCCC(=O)Nc1ccc(-n2cncn2)cc1 [Compound 9c, N-(4-(1H-1,2,4-triazol-1-yl)phenyl)pentanamide] | 30 mg/kg | 100 mg/kg | 30 mg/kg | 30 mg/kg | 300 mg/kg | >300 mg/kg | – | 35.5 mg/kg | 7.3 | 17.3 mg/kg | 15.0 | 260.0 (282.7–239.2) mg | – |
| CCCCCC(=O)Nc1ccc(-n2cncn2)cc1 [Compound 9d, N-(4-(1H-1,2,4-triazol-1-yl)phenyl)hexanamide] | 100 mg/kg | 100 mg/kg | 30 mg/kg | 30 mg/kg | >300 mg/kg | >300 mg/kg | – | – | – | – | – | – | – |
| CCCCCCC(=O)Nc1ccc(-n2cncn2)cc1 [Compound 9e, N-(4-(1H-1,2,4-triazol-1-yl)phenyl)heptanamide] | 300 mg/kg | > 300 mg/kg | 100 mg/kg | 300 mg/kg | >300 mg/kg | >300 mg/kg | – | – | – | – | – | – | – |
| CCCCCCCC(=O)Nc1ccc(-n2cncn2)cc1 [Compound 9f, N-(4-(1H-1,2,4-triazol-1-yl)phenyl)octanamide] | 300 mg/kg | > 300 mg/kg | 100 mg/kg | 300 mg/kg | >300 mg/kg | >300 mg/kg | – | – | – | – | – | – | – |
| CCCCCCCCC(=O)Nc1ccc(-n2cncn2)cc1 [Compound 9g, N-(4-(1H-1,2,4-triazol-1-yl)phenyl)nonanamide] | 300 mg/kg | > 300 mg/kg | 300 mg/kg | 300 mg/kg | >300 mg/kg | >300 mg/kg | – | – | – | – | – | – | – |
| CN1C(=O)CN=C(c2ccccc2)c2cc(Cl)ccc21 [Diazepam, reference compound] | – | – | – | – | – | – | – | – | – | – | – | – | showed a significant difference |
